# Data taken from the SangsterLogP compilation.
# Experiment: method code SF-AS, from DOI: 10.1897/1552-8618(1992)11[901:aapohp]2.0.co;2
row,logP,SMILES
1,1.41,CCc1cccc(C)c1NC(C)=O
2,-0.26,COc1cccc([N+](=O)[O-])c1C(N)=O
3,3.34,CC(C)c1ccccc1[N+](=O)[O-]
4,1.68,COc1c(Cl)cccc1NC(C)=O
5,2.41,CC(=O)Nc1c(C(C)C)cccc1C(C)C
6,0.93,NC(=O)c1ccccc1I
7,0.59,COc1cccc(Cl)c1C(N)=O
8,3.72,CC(=O)Nc1cc(C(F)(F)F)cc(C(F)(F)F)c1
9,1.83,CC(=O)Nc1cccc(Cl)c1F
10,2.34,CC(=O)Nc1cc(C(F)(F)F)c(F)cc1F
11,0.9,Cc1cccc(C)c1C(N)=O
12,1.62,CC(=O)Nc1ccccc1I
13,2.14,COc1ccccc1F
14,3.17,CC(=O)Nc1cc(Cl)cc(Cl)c1
15,3.27,CC(=O)Nc1cc(Cl)cc(C(F)(F)F)c1Cl
16,3.76,CC(=O)Nc1cc(Cl)c(Cl)c(Cl)c1
17,1.03,CC(=O)Nc1ccccc1F
18,3.64,CCCCc1ccc(NC(C)=O)cc1C
19,2.1,CC(=O)Nc1ccc(C)c(C)c1
20,3.02,COc1c(C)cccc1C
21,2.19,CC(=O)Nc1cc(Cl)ccc1Cl

row,logP,SMILES
1,3.51,CC(=O)Nc1cc(C(F)(F)F)cc(C(F)(F)F)c1Br
2,1.22,CC(=O)Nc1c(C)cccc1Cl
3,3.02,CC(=O)Nc1cc(C(F)(F)F)c(Cl)cc1F
4,2.17,CC(=O)Nc1cc(C)cc(C)c1
5,2.76,C=CCOc1cc(NC(C)=O)c(F)cc1Cl
6,1.39,CC(C)c1ccccc1C(N)=O
7,3.3,CCCCc1ccc(NC(C)=O)cc1
8,1.82,CC(=O)Nc1cccc(Cl)c1C
9,3.27,CC(=O)Nc1cc(C(F)(F)F)cc(Cl)c1Cl
10,2.24,CC(=O)Nc1cc(C(F)(F)F)ccc1F
11,1.46,CC(=O)Nc1ccc(C)cc1C
12,1.09,COc1ccc(NC(C)=O)c([N+](=O)[O-])c1
13,2.88,CC(=O)Nc1ccc(Cl)c(Cl)c1Cl
14,0.12,NC(=O)c1c(Cl)cccc1[N+](=O)[O-]
15,1.76,CC(=O)Nc1ccc(C)c(C)c1C
16,0.69,CC(=O)Nc1c(F)cccc1F
17,2.69,COc1ccc(OC)c(Cl)c1
18,0.76,Cc1ccccc1C(N)=O
19,2.1,CCc1cccc(C(C)C)c1NC(C)=O
20,0.99,N#Cc1ccccc1C#N
21,2.09,CC(=O)Nc1cccc(Cl)c1Cl

row,logP,SMILES
1,0.89,Cc1cccc(Cl)c1C(N)=O
2,3.15,CC(=O)Nc1cc(Cl)cc(C(F)(F)F)c1F
3,1.78,CC(=O)Nc1ccc(Cl)cc1[N+](=O)[O-]
4,0.68,NC(=O)c1ccccc1C(F)(F)F
5,1.47,CC(=O)Nc1cc(C)ccc1C
6,2.72,CCCc1cc(NC(C)=O)ccc1OC
7,0.61,CC(=O)Nc1c(C)cccc1[N+](=O)[O-]
8,1.85,CCc1cccc(CC)c1NC(C)=O
9,0.63,NC(=O)c1c(F)cccc1Br
10,1.7,CC(=O)Nc1c(F)c(F)c(F)c(F)c1F
11,2.9,CC(=O)Nc1cc(Cl)c(F)c(Cl)c1F
12,3.33,CC(=O)Nc1ccc(Cl)c(C(F)(F)F)c1
13,1.18,CC(=O)Nc1c(C)cc(C)cc1[N+](=O)[O-]
14,-0.22,COc1cccc(OC)c1C(N)=O
15,1.35,CC(=O)Nc1cccc(C)c1C
16,3.1,CCCCc1ccc(NC(C)=O)c(C)c1
17,1.57,CC(=O)Nc1ccc(Oc2ccccn2)cc1
18,1.07,CC(=O)Nc1c(C)cccc1C
19,1.49,CC(=O)Nc1ccc(C)cc1[N+](=O)[O-]
20,3.24,CC(=O)Nc1cc(C(F)(F)F)c(Cl)cc1Cl
21,2.37,CC(=O)Nc1ccccc1Oc1ccccc1

row,logP,SMILES
1,2.87,COc1cccc(OC)c1C
2,2.76,COc1ccc(C)c(OC)c1
3,1.47,CC(=O)Nc1cccc([N+](=O)[O-])c1
4,1,NC(=O)c1c(Cl)cccc1Br
5,2.62,CC(=O)Nc1ccc(OC(F)(F)F)cc1
6,1.28,COc1c(C)cccc1NC(C)=O
7,1.17,CCc1ccccc1C(N)=O
8,2.68,COc1cccc([N+](=O)[O-])c1C
9,3.18,CCc1ccccc1OC
10,1.13,COc1cccc(NC(C)=O)c1C
11,1.91,CC(=O)Nc1ccc(Cl)cc1F
12,2.69,CC(=O)Nc1ccc(C)c(Cl)c1
13,3.1,CCCCc1ccc(NC(C)=O)c([N+](=O)[O-])c1
14,1.32,CC(=O)Nc1c(Cl)cccc1Cl
15,2.5,CC(=O)Nc1cc(C)c(C)c(C)c1
16,2.86,CC(=O)Nc1cc(F)cc(C(F)(F)F)c1Cl
17,1.98,CC(=O)Nc1ccc(Cl)cc1C(F)(F)F
18,1.85,CC(=O)Nc1cc(Cl)ccc1C
19,2.02,CC(=O)Nc1ccccc1-c1ccccc1
20,0.49,NC(=O)c1c(F)cccc1Cl
21,2.18,CC(=O)Nc1ccc(Cl)cc1Cl

row,SMILES,logP
1,CC(=O)Nc1c([N+](=O)[O-])cccc1[N+](=O)[O-],0.56
2,O=[N+]([O-])c1cc(C(F)(F)F)cc([N+](=O)[O-])c1Cl,2.5
3,O=[N+]([O-])c1ccc(Cl)cc1[N+](=O)[O-],2.18
